What was measured:
[1] = Storage stability of ticagrelor 6 mg/ml in HPβCD 40% w/w at pH 4.5, 5.5, 6.5, 40° C./75% RH, related substances by HPLC; type: physicochemical; conditions: for Acetal impurity, average content / Amine impurity, average content / Impurity at relative retention time 1.52, average content / Oxidative impurity 1, average content / Oxidative impurity 2, average content / Regiomer impurity, average content / Sum impurities >0.05 / Total impurities / Triol Impurity, average content: 40° C./75% RH
Protocol: HPBCD was dissolved in a buffer solution of pH 4.5, 5.5 or 6.5 prepared separately in water. […] The ticagrelor in buffer solution was filtered through a 0.22 micron filtered and filled in USP Type I glass vials. The vials were stoppered and stored. All precautions were taken during manufacturing, such as N2 purging and avoiding direct exposure to light. The vials were stored at 40° C. and 75% Relative Humidity (RH). To determine the stability of the formulations, batches were evaluated using a related substance method on HPLC. A Gradient HPLC method was used to analyze impurities in formulations using a YMC-Pack Pro C18 column (100×4.6 mm, S-3 μm 12 nm). Good separation was obtained for all the impurities.

[2] = phosphate buffered solution at pH 7.4; after 1 month under normal laboratory conditions of light and temperature; cited from earlier work
[3] = tested on: Methicillin resistant Staphylococcus aureus (MRSA); conditions: ex-vivo; cited from earlier work
[4] = Physical stability and diluent tests of ticagrelor 5 mg/ml batches with varying HPβCD; type: physicochemical; conditions: for Appearance in 5% dextrose / Appearance in NaCl 0.9%: diluted to ticagrelor 0.1 mg/ml; for Appearance, undiluted: ticagrelor 5 mg/ml
Protocol: 5 mg/ml ticagrelor-cyclodextrin solutions with varying amounts of HPβCD were diluted with normal saline, 5% dextrose solution or Ringer's lactate solution. The stability was screened. The ticagrelor concentration when diluted into dextrose or saline was 0.1 mg/ml.

CCCSc1nc(N[C@@H]2C[C@H]2c2ccc(F)c(F)c2)c2nnn([C@@H]3C[C@H](OCCO)[C@@H](O)[C@H]3O)c2n1 [ticagrelor, (1S,2S,3R,5S)-3-{7-[(1R,2S)-2-(3,4-difluorophenyl)cyclopropylamino]5-(propylthio)-3H-(1,2,3)triazolo (4,5-D)pyrimidin-3-yl}-5-(2 hydroxyethoxy) cyclopentane-1,2-diol]
regiomer impurity level ([1]; 4 weeks 40° C. and 75% RH, specification limit 0.3%): ~0.3% | Acetal impurity, average content ([1]; pH 4.5, T = 0): 0.05% | Amine impurity, average content ([1]; pH 4.5, T = 0): 0.05% | Impurity at relative retention time 1.52, average content ([1]; pH 4.5, T = 0): 0.03% | Oxidative impurity 1, average content ([1]; pH 4.5, T = 0): 0.00% | Oxidative impurity 2, average content ([1]; pH 4.5, T = 0): 0.00% | Regiomer impurity, average content ([1]; pH 4.5, T = 0): 0.00% | Sum impurities >0.05 ([1]; pH 4.5, T = 0): 0.22% | Total impurities ([1]; pH 4.5, T = 0): 0.36% | Triol Impurity, average content ([1]; pH 4.5, T = 0): 0.05% | Acetal impurity, average content ([1]; pH 4.5, T = 2 weeks): 0.06% | Amine impurity, average content ([1]; pH 4.5, T = 2 weeks): 0.05% | Impurity at relative retention time 1.52, average content ([1]; pH 4.5, T = 2 weeks): 0.04% | Oxidative impurity 1, average content ([1]; pH 4.5, T = 2 weeks): 0.00% | Oxidative impurity 2, average content ([1]; pH 4.5, T = 2 weeks): 0.00% | Regiomer impurity, average content ([1]; pH 4.5, T = 2 weeks): 0.00% | Sum impurities >0.05 ([1]; pH 4.5, T = 2 weeks): 0.23% | Total impurities ([1]; pH 4.5, T = 2 weeks): 0.40% | Triol Impurity, average content ([1]; pH 4.5, T = 2 weeks): 0.05% | Acetal impurity, average content ([1]; pH 4.5, T = 4 weeks): 0.05% | Amine impurity, average content ([1]; pH 4.5, T = 4 weeks): 0.05% | Impurity at relative retention time 1.52, average content ([1]; pH 4.5, T = 4 weeks): 0.03% | Oxidative impurity 1, average content ([1]; pH 4.5, T = 4 weeks): 0.01% | Oxidative impurity 2, average content ([1]; pH 4.5, T = 4 weeks): 0.02% | Regiomer impurity, average content ([1]; pH 4.5, T = 4 weeks): 0.42% | Sum impurities >0.05 ([1]; pH 4.5, T = 4 weeks): 0.63% | Total impurities ([1]; pH 4.5, T = 4 weeks): 0.80% | Triol Impurity, average content ([1]; pH 4.5, T = 4 weeks): 0.05% | Acetal impurity, average content ([1]; pH 5.5, T = 0): 0.05% | Amine impurity, average content ([1]; pH 5.5, T = 0): 0.04% | Impurity at relative retention time 1.52, average content ([1]; pH 5.5, T = 0): 0.02% | Oxidative impurity 1, average content ([1]; pH 5.5, T = 0): 0.00% | Oxidative impurity 2, average content ([1]; pH 5.5, T = 0): 0.00% | Regiomer impurity, average content ([1]; pH 5.5, T = 0): 0.00% | Sum impurities >0.05 ([1]; pH 5.5, T = 0): 0.16% | Total impurities ([1]; pH 5.5, T = 0): 0.33% | Triol Impurity, average content ([1]; pH 5.5, T = 0): 0.05% | Acetal impurity, average content ([1]; pH 5.5, T = 2 weeks): 0.05% | Amine impurity, average content ([1]; pH 5.5, T = 2 weeks): 0.05% | Impurity at relative retention time 1.52, average content ([1]; pH 5.5, T = 2 weeks): 0.03% | Oxidative impurity 1, average content ([1]; pH 5.5, T = 2 weeks): 0.00% | Oxidative impurity 2, average content ([1]; pH 5.5, T = 2 weeks): 0.00% | Regiomer impurity, average content ([1]; pH 5.5, T = 2 weeks): 0.00% | Sum impurities >0.05 ([1]; pH 5.5, T = 2 weeks): 0.21% | Total impurities ([1]; pH 5.5, T = 2 weeks): 0.36% | Triol Impurity, average content ([1]; pH 5.5, T = 2 weeks): 0.05% | Acetal impurity, average content ([1]; pH 5.5, T = 4 weeks): 0.05% | Amine impurity, average content ([1]; pH 5.5, T = 4 weeks): 0.04% | Impurity at relative retention time 1.52, average content ([1]; pH 5.5, T = 4 weeks): 0.02% | Oxidative impurity 1, average content ([1]; pH 5.5, T = 4 weeks): 0.01% | Oxidative impurity 2, average content ([1]; pH 5.5, T = 4 weeks): 0.02% | Regiomer impurity, average content ([1]; pH 5.5, T = 4 weeks): 0.30% | Sum impurities >0.05 ([1]; pH 5.5, T = 4 weeks): 0.45% | Total impurities ([1]; pH 5.5, T = 4 weeks): 0.65% | Triol Impurity, average content ([1]; pH 5.5, T = 4 weeks): 0.05% | Acetal impurity, average content ([1]; pH 6.5, T = 0): 0.06% | Amine impurity, average content ([1]; pH 6.5, T = 0): 0.05% | Impurity at relative retention time 1.52, average content ([1]; pH 6.5, T = 0): 0.03% | Oxidative impurity 1, average content ([1]; pH 6.5, T = 0): 0.00% | Oxidative impurity 2, average content ([1]; pH 6.5, T = 0): 0.00% | Regiomer impurity, average content ([1]; pH 6.5, T = 0): 0.00% | Sum impurities >0.05 ([1]; pH 6.5, T = 0): 0.22% | Total impurities ([1]; pH 6.5, T = 0): 0.36% | Triol Impurity, average content ([1]; pH 6.5, T = 0): 0.06% | Acetal impurity, average content ([1]; pH 6.5, T = 2 weeks): 0.06% | Amine impurity, average content ([1]; pH 6.5, T = 2 weeks): 0.05% | Impurity at relative retention time 1.52, average content ([1]; pH 6.5, T = 2 weeks): 0.04% | Oxidative impurity 1, average content ([1]; pH 6.5, T = 2 weeks): 0.00% | Oxidative impurity 2, average content ([1]; pH 6.5, T = 2 weeks): 0.00% | Regiomer impurity, average content ([1]; pH 6.5, T = 2 weeks): 0.00% | Sum impurities >0.05 ([1]; pH 6.5, T = 2 weeks): 0.23% | Total impurities ([1]; pH 6.5, T = 2 weeks): 0.41% | Triol Impurity, average content ([1]; pH 6.5, T = 2 weeks): 0.06% | Acetal impurity, average content ([1]; pH 6.5, T = 4 weeks): 0.06% | Amine impurity, average content ([1]; pH 6.5, T = 4 weeks): 0.05% | Impurity at relative retention time 1.52, average content ([1]; pH 6.5, T = 4 weeks): 0.03% | Oxidative impurity 1, average content ([1]; pH 6.5, T = 4 weeks): 0.00% | Oxidative impurity 2, average content ([1]; pH 6.5, T = 4 weeks): 0.04% | Regiomer impurity, average content ([1]; pH 6.5, T = 4 weeks): 0.35% | Sum impurities >0.05 ([1]; pH 6.5, T = 4 weeks): 0.56% | Total impurities ([1]; pH 6.5, T = 4 weeks): 0.72% | Triol Impurity, average content ([1]; pH 6.5, T = 4 weeks): 0.05% | ticagrelor concentrations in solution [2]: declined | minimal bactericidal concentration [3]: 20 microgram/ml | ticagrelor concentration that could be dissolved ([4]; HPβCD 20-40% w/w, without the use of heat): 5 to 15 mg/mL | Appearance in 5% dextrose ([4]; HPβCD 22.5% w/w): Clear solution | Appearance in NaCl 0.9% ([4]; HPβCD 22.5% w/w): Turbid | Appearance in 5% dextrose ([4]; HPβCD 25.0% w/w): Clear solution | Appearance in NaCl 0.9% ([4]; HPβCD 25.0% w/w): Turbid | Appearance in 5% dextrose ([4]; HPβCD 27.5% w/w): Clear solution | Appearance in NaCl 0.9% ([4]; HPβCD 27.5% w/w): Turbid | Appearance in 5% dextrose ([4]; HPβCD 30.0% w/w): Clear solution | Appearance in NaCl 0.9% ([4]; HPβCD 30.0% w/w): Turbid | Appearance in 5% dextrose ([4]; HPβCD 32.5% w/w): Clear solution | Appearance in NaCl 0.9% ([4]; HPβCD 32.5% w/w): Clear solution | stability of undiluted concentrate ([4]; in the refrigerator, HPβCD concentration as low as 22.5% w/w): remained stable | Appearance, undiluted ([4]; HPβCD 30.0% w/w): Clear solution | Appearance, undiluted ([4]; HPβCD 32.5% w/w): Clear solution
